We go through twelve molecules from patent US20220183279A1, “STABILIZED THIOKETONE FORMULATIONS” (priority 2019, published 2022).

This data set can be described thus: Effect of 5% by weight additives on prothioconazole in N,N-dimethyldecanamide, LED 350 nm, 24 hours. The data set is classed as physicochemical. To be noted: 0.4 g prothioconazole, 1.5 g N,N-dimethyldecanamide, 0.1 g stabiliser (5% by weight), 19 mW/cm^2, 24 hours, Comparison without additive 1539 ppm. The protocol: 0.4 g of prothioconazole, 1.5 g of N,N-dimethyldecanamide and 0.1 g of the respective stabiliser were combined in a 20 ml vial. The reaction mixtures were irradiated in a photoreactor with stirring (magnetic stirrer) using LED lamps (wavelength 350 nm, 19 mW/cm^2) for 24 hours. Samples were then taken and the respective content of compound III was determined by HPLC chromatography (column: Agilent Zorbax Eclipse Plus C18, 50×4.6 mm, 1.8 μm, mobile phase: acetonitrile/0.1% by weight of aqueous phosphoric acid, gradient at 2 ml/min, temperature: 45° C., external standard).
As to `O=C(O)/C=C/c1ccc(O)c(O)c1` [Caffeic acid], the “Compound III (ppm)” value stood at 616 ppm.

For `C=CCc1ccc(O)c(OC)c1` [Eugenol], the “Compound III (ppm)” value came to 580 ppm.

As to `CCCCC(CC)COC(=O)C(C#N)=C(c1ccccc1)c1ccccc1` (stereo not drawn) [Octocrylene], the “Compound III (ppm)” value is given as 1377 ppm.

On to `O[C@H](CS)[C@H](O)CS` (racemic) [DL-Dithiothreitol], for which the “Compound III (ppm)” value was found to be 749 ppm.

Regarding `COc1ccc(O)cc1` [4-Methoxyphenol], the “Compound III (ppm)” value came to 1706 ppm.

With `O=C(O)c1cc(O)c(O)c(O)c1` [Gallic acid], the “Compound III (ppm)” value is 3700 ppm.

On to (+/−)-alpha-Tocopherol, for which the “Compound III (ppm)” value amounted to 96 ppm.

As for `Cc1cc(C(C)(C)C)c(O)c(C(C)(C)C)c1` [Butylated hydroxytoluene (BHT), Butylated hydroxytoluene], the “Compound III (ppm)” value is 576 ppm.

Consider `COc1cc(/C=C/C(=O)O)ccc1O` [Ferulic acid], for which the “Compound III (ppm)” value came to 2059 ppm.

In the case of `O=C(O)CNC(=O)CCS` [N-(Mercaptopropionyl)glycine], the “Compound III (ppm)” value was 1102 ppm.

Consider `Cc1cc(O)cc2c1O[C@](C)(CCC[C@H](C)CCC[C@H](C)CCCC(C)C)CC2` [(+)-delta-Tocopherol], for which the “Compound III (ppm)” value worked out at 81 ppm.

`O=C(O)C=Cc1ccc(O)cc1` [4-Hydroxycinnamic acid]: the “Compound III (ppm)” value was 2754 ppm.
